# Values quoted from earlier work as cited in PMC3892053, “Pharmacokinetic/pharmacodynamic modeling for the determination of a cimicoxib dosing regimen in the dog” (BMC Veterinary Research, 2013).
# Like-named read-outs stand apart in the source and are kept apart here.
# What was measured:
# [1] = cited from earlier work
# [2] = test system: nociceptive threshold; parameters: method as in PMID 19186002; details: rats, given systemically; cited from earlier work
# [3] = test system: g.i.t side effects; parameters: method as in PMID 16871494; details: large scale survey, mainly vomiting; cited from earlier work
# [4] = test system: COX-1/COX-2; details: cited from earlier work; for greater potency for COX-2 inhibition: highly selective COX-2 inhibitors
# [5] = test system: wound healing; parameters: method as in PMID 19175721; details: mechanism independent of prostaglandin synthesis; cited from earlier work
# [6] = as quoted in Discussion, no reference given
# [7] = population PK survey in osteoarthritic dogs
smiles,measurement,setting,value
CC(C(=O)O)c1ccc2c(c1)[nH]c1ccc(Cl)cc12 (stereo not drawn) [Carprofen],half-life,[1]; dogs,about 9 h
Cc1ccc(-c2cc(C(F)(F)F)nn2-c2ccc(S(N)(=O)=O)cc2)cc1 [celecoxib],hypoalgesia (ipsilateral nociceptive threshold raised above basal values),[2],induced a state of hypoalgesia
CC1(C)OC(=O)C(OCC2CC2)=C1c1ccc(S(C)(=O)=O)cc1 [firocoxib],withdrawal rate associated with g.i.t side effects,[3],2.9 % of dogs
same,half-life,[1]; [6],7 h
same,plasma clearance,[1]; dog,7.7 mL/min/kg
same,half-life,[1]; mixed-breed dogs,5.9 h
same,greater potency for COX-2 inhibition,[4],more than 100 fold
same,COX-1/COX-2 selectivity index,[4]; whole blood assay,384
same,effect on wound healing,[5],slow down wound healing
COc1ccc2c(c1)c(CC(=O)O)c(C)n2C(=O)c1ccc(Cl)cc1 [indomethacin],hypoalgesia (ipsilateral nociceptive threshold raised above basal values),[2],not observed
NS(=O)(=O)c1ccc(-n2nc(C(F)(F)F)cc2-c2ccc(F)cc2)cc1 [mavacoxib],half-life,"[1]; dog, in vivo",415 h
same,plasma clearance,"[1]; dog, in vivo",0.045 mL/min/kg
same,half-life of some beagle dogs,[1]; laboratory beagle dogs,> 720 h
same,terminal half-life in some dogs (5% of the population),[1]; [7],exceeded 80 days
same,"terminal half-life, extreme values",[1]; [7],up to 140 days
same,typical terminal half-life (population mean),[1]; [7],1060 h
CN1C(C(=O)Nc2ccccn2)=C(O)c2ccccc2S1(=O)=O [piroxicam],hypoalgesia (ipsilateral nociceptive threshold raised above basal values),[2],not observed
CCc1ccc(Nc2c(F)c(F)cc(F)c2F)c(CC(=O)O)c1 [robenacoxib],half-life,[1]; [6],1 h
same,half-life,[1]; beagle dogs,0.63 h
same,plasma clearance,[1]; dog,13.5 mL/min/kg
same,greater potency for COX-2 inhibition,[4],more than 100 fold
